pIC50: −log10 of the molar value.
Assays:
human CB1 receptor = biological target: T1, human CB1 receptor (Homo sapiens, UniProt P21554); assay: Cannabinoid CB1 receptor binding assay ([3H]-CP-55,940 displacement, SK-N-MC cell membranes); conditions: for inhibition at 0.2 µM: 1.5 h, read-out: Cannabinoid CB1 Receptor Binding, percent inhibition
T1 construct: expressed in transfected cells; host or cells: SK-N-MC cells, stably transfected with pcDNA3 CB-1 (human); semi-purified membrane pellet
Description: (§1) Binding Assay for CB1 or CB2 Agonists or Inverse Agonists
(§2) The human CB1 and CB2 receptors were stably expressed in SK-N-MC cells transfected with pcDNA3 CB-1 (human) or pcDNA3 CB-2 (human). The cells were grown in T-180 cell culture flasks under standard cell culture conditions at 37° C. in a 5% CO2 atmosphere. The cells were harvested by trysinization and homogenized in a homogenization buffer (10 mM Tris, 0.2 mM MgCl2, 5 mM KCl, with protease inhibitors aprotinin, leupeptin, pepstatin A and bacitracin) and centrifuged (2000 g). The supernatant was then centrifuged in 2M sucrose (31,300 g) to produce a semi-purified membrane pellet. The pellet was resuspended in homogenization and stored at −80° C.
(§3) On the day of the assay, the pellet was thawed on ice and diluted in assay buffer (50 mM Tris-HCl, 5 mM MgCl2, 2.5 mM EDTA, 0.5 mg/mL fatty acid free bovine serum albumin, pH 7.5). The diluted membrane pellet was added with buffer, either a test compound or vehicle standard and the radioligand […] (0.2 nM) to the wells of a 96-well polypropylene plate. Non-specific binding was measured in wells containing W1N 55,212 (10 uM). The plate was covered and incubated for 90 minutes at 30° C. The contents were then aspirated onto a Packard Unifilter GF/C filter bottom plate prewet with 0.5% polyethyleneimine. The wells of the polypropylene plate were rinsed and aspirated seven times with a 0.9% saline-0.5% Tween 20 solution. The Unifilter plate was dried, scintillation cocktail was added to each well and the counts representing binding were quantitated in a TopCount scintillation counter.
(§4) For compounds tested, an IC50 binding value was obtained from percent inhibition studies in which various test concentrations were used. The binding value was calculated by linear regression.
(§5) For compounds without an IC50 binding value, the percent inhibition (%) was obtained at a test concentration of 0.2 μM.

human CB2 receptor = biological target: T2, human CB2 receptor (Homo sapiens, UniProt P34972); assay: Cannabinoid CB2 receptor binding assay ([3H]-CP-55,940 displacement, SK-N-MC cell membranes); conditions: 1.5 h; test concentration of 0.2 μM; radioligand CP-55,940 0.2 nM; read-out: Cannabinoid CB2 Receptor Binding, percent inhibition
T2 construct: expressed in transfected cells; host or cells: SK-N-MC cells, stably transfected with pcDNA3 CB-2 (human); semi-purified membrane pellet
Description: as §1, §2, §3, §4, §5

T2 sequence (P34972 whole entry): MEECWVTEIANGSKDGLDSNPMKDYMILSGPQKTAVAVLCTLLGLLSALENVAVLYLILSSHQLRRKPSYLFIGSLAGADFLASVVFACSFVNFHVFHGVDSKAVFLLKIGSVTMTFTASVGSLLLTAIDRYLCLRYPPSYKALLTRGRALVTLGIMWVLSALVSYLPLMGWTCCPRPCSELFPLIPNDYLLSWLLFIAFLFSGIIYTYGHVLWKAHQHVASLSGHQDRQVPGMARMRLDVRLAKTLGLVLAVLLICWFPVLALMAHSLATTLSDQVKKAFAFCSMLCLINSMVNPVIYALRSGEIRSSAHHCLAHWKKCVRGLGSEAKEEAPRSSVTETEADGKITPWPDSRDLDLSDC
T1 sequence (P21554 whole entry): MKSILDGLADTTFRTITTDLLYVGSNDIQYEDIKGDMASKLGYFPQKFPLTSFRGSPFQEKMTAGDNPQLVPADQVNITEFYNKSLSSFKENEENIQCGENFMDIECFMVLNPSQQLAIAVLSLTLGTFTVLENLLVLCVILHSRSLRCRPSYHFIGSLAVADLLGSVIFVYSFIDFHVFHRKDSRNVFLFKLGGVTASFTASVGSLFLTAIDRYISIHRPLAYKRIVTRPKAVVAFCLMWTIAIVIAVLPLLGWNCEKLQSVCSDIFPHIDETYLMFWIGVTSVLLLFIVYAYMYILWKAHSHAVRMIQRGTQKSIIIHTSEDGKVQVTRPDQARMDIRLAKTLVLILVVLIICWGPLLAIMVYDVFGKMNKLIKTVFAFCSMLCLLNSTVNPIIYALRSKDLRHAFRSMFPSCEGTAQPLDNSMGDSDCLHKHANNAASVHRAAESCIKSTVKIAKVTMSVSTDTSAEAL

| SMILES | pIC50 (human CB1 receptor) | inhibition at 0.2 µM (human CB1 receptor) | inhibition at 0.2 µM (human CB2 receptor) |
| --- | --- | --- | --- |
| Cc1c(C(=O)N[C@@H](C)c2ccccn2)nn(-c2ccc(Cl)cc2Cl)c1-c1ccc(Cl)s1 [Cpd 1, 5-(5-chloro-thiophen-2-yl)-1-(2,4-dichloro-phenyl)-4-methyl-1H-pyrazole-3-carboxylic acid [(1S)-1-pyridin-2-yl-ethyl]-amide] | 7.42 |  |  |
| Cc1c(C(=O)NN2CCCCC2)nn(-c2ccc(Cl)cc2Cl)c1-c1ccc(Cl)s1 [Cpd 2, 5-(5-chloro-thiophen-2-yl)-1-(2,4-dichloro-phenyl)-4-methyl-1H-pyrazole-3-carboxylic acid piperidin-1-ylamide] | 7.40 |  |  |
| Cc1c(C(=O)N[C@@H](C)c2ccccc2)nn(-c2ccc(Cl)cc2Cl)c1-c1ccc(Cl)s1 [Cpd 3, 5-(5-chloro-thiophen-2-yl)-1-(2,4-dichloro-phenyl)-4-methyl-1H-pyrazole-3-carboxylic acid [(1S)-1-phenyl-ethyl]-amide] | 7.46 |  |  |
| Cc1c(C(=O)NN2CCC(O)CC2)nn(-c2ccc(Cl)cc2Cl)c1-c1ccc(Cl)s1 [Cpd 4, 5-(5-chloro-thiophen-2-yl)-1-(2,4-dichloro-phenyl)-4-methyl-1H-pyrazole-3-carboxylic acid (4-hydroxy-piperidin-1-yl)-amide] |  | 27% | 11% |
| Cc1c(C(=O)N[C@H](C)C2CCCCC2)nn(-c2ccc(Cl)cc2Cl)c1-c1cccs1 [Cpd 5, 1-(2,4-dichloro-phenyl)-4-methyl-5-thiophen-2-yl-1H-pyrazole-3-carboxylic acid [(1R)-1-cyclohexyl-ethyl]-amide] |  | 43% | 15% |
| Cc1c(C(=O)N[C@H](C)c2ccccc2)nn(-c2ccc(Cl)cc2Cl)c1-c1cccs1 [Cpd 6, 1-(2,4-dichloro-phenyl)-4-methyl-5-thiophen-2-yl-1H-pyrazole-3-carboxylic acid [(1R)-1-phenyl-ethyl]-amide] |  | 57% | 8% |
| Cc1c(C(=O)N[C@@H](C)c2ccccc2)nn(-c2ccc(Cl)cc2Cl)c1-c1cccs1 [Cpd 7, 1-(2,4-dichloro-phenyl)-4-methyl-5-thiophen-2-yl-1H-pyrazole-3-carboxylic acid [(1S)-1-phenyl-ethyl]-amide] |  | 28% | 0% |
| Cc1c(C(=O)N[C@@H](C)C2CCCCC2)nn(-c2ccc(Cl)cc2Cl)c1-c1cccs1 [Cpd 8, 1-(2,4-dichloro-phenyl)-4-methyl-5-thiophen-2-yl-1H-pyrazole-3-carboxylic acid [(1S)-1-cyclohexyl-ethyl]-amide] |  | 34% | 1% |
| Cc1c(C(=O)N[C@@H](C)c2ccccn2)nn(-c2ccc(Cl)cc2Cl)c1-c1cccs1 [Cpd 9, 1-(2,4-dichloro-phenyl)-4-methyl-5-thiophen-2-yl-1H-pyrazole-3-carboxylic acid [(1S)-1-pyridin-2-yl-ethyl]-amide] |  | 25% | 8% |
| Cc1c(C(=O)N[C@@H](C)c2ccccc2)nn(-c2ccc(Cl)cc2Cl)c1-c1ccc(I)s1 [Cpd 36, 1-(2,4-dichloro-phenyl)-5-(5-iodo-thiophen-2-yl)-4-methyl-1H-pyrazole-3-carboxylic acid [(1S)-1-phenyl-ethyl]-amide] | 7.77 |  |  |
| Cc1c(C(=O)N[C@@H](C)c2ccccn2)nn(-c2ccc(Cl)cc2Cl)c1-c1ccc(I)s1 [Cpd 37, 1-(2,4-dichloro-phenyl)-5-(5-iodo-thiophen-2-yl)-4-methyl-1H-pyrazole-3-carboxylic acid [(1S)-1-pyridin-2-yl-ethyl]-amide] | 7.51 |  |  |
| Cc1c(C(=O)N[C@H](C)c2ccccc2)nn(-c2ccc(Cl)cc2Cl)c1-c1ccc(I)s1 [Cpd 38, 1-(2,4-dichloro-phenyl)-5-(5-iodo-thiophen-2-yl)-4-methyl-1H-pyrazole-3-carboxylic acid [(1R)-1-phenyl-ethyl]-amide] | 7.64 |  |  |
| Cc1c(C(=O)N[C@@H](C)C2CCCCC2)nn(-c2ccc(Cl)cc2Cl)c1-c1ccc(I)s1 [Cpd 39, 1-(2,4-dichloro-phenyl)-5-(5-iodo-thiophen-2-yl)-4-methyl-1H-pyrazole-3-carboxylic acid [(1S)-1-cyclohexyl-ethyl]-amide] | 7.74 |  |  |
